{
  "source": "patent US11547644B2",
  "about": "“Emulsions comprising cationic emulsifiers based on MDIPA ester quats” (Evonik Operations GmbH, priority 2015, dated 2023)",
  "key": {"[1]": {"test": "Biodegradability in water, OECD 301", "excerpt": "(§1) Consequently, an emulsifier according to the invention (Example 2) was investigated compared to distearyldimonium chloride with the help of various OECD tests."}, "[2]": {"test_system": "invertebrate aquatic animals", "test": "Acute Immobilization Test (OECD 202)", "assay_type": "in vivo", "excerpt": "as §1"}, "Daphnia Magna": {"test_system": "Daphnia Magna", "test": "Daphnia Magna Reproduction Test (OECD 211)", "settings": "in vivo", "excerpt": "as §1"}},
  "data": [
    {"smiles": "CCCCCCCCCCCCCCCCCC[N+](C)(C)CCCCCCCCCCCCCCCCCC.[Cl-]", "note": "[Distearyldimonium Chloride]", "values": [
      {"measurement": "Biodegradability in water", "setting": "[1]", "result": "OECD 301: 3% (28 d)"},
      {"measurement": "Short-term toxicity towards invertebrate aquatic animals, EC50(48h)", "setting": "[2]", "result": "EC-50(48h) = 0.16 mg/l"},
      {"measurement": "Long-term toxicity towards invertebrate aquatic animals, NOEC(21 d)", "setting": "Daphnia Magna", "result": "NOEC(21 d) = 0.38 mg/l"}
    ]}
  ]
}
